Consider 32 compounds from ChEMBL document CHEMBL1136823, “Lead discovery of alpha,beta-unsaturated sulfones from a combinatorial library as inhibitors of inducible VCAM-1 expression” (Bioorg Med Chem Lett, 2003).

Each structure is given as a SMILES string.

The first assay in a line: In vitro inhibition of inducible vascular cell adhesion molecule-1 (VCAM-1) expression in Human aortic endothelial cells (HAEC). The assay is classed as functional, cell-based.
`CC(=O)OCCS(=O)(=O)c1ccccc1` showed a 50% inhibitory concentration (IC50) of 12 µM.
Still for that read-out and setting: the value for `CC(=O)OCCS(=O)(=O)c1cccc(N)c1` was 10 µM; that for `C=CS(C)(=O)=O` was 14 µM; that for `C=CS(=O)(=O)c1cccc(NCCCCCCCC)c1` was 29 µM.
On the same count and under the same terms, to `CCCCCCC/C=C/C(=O)OCCS(=O)(=O)c1cccc(N)c1` belongs 28 µM; to `CCCCC/C=C/C(=O)OCCS(=O)(=O)c1cccc(N)c1`, 17 µM.
On the same count and under the same terms, the value for `C=CC(=O)OCCS(=O)(=O)c1ccccc1` was 7 µM.
In turn, `C=CS(=O)(=O)c1ccccc1` [(ETHENYLSULFONYL)BENZENE] came in with a 50% inhibitory concentration (IC50) of 2 µM.
Still for that read-out and setting: the value for `CCCCC/C=C/C(=O)OCCS(=O)(=O)c1ccccc1` was 17 µM; that for `CCCCCCC/C=C/C(=O)Nc1cccc(S(=O)(=O)CCO)c1` was 23 µM; that for `CCCCCC#CC(=O)Nc1cccc(S(=O)(=O)CCO)c1` was 20 µM.
Same read-out and setting: to `CC(=O)Nc1cccc(S(=O)(=O)CCOC(C)=O)c1` belongs 4 µM; to `O=S(=O)(CCCl)c1ccccc1`, 2 µM.
The same measure, in the same setting: to `CCCCCC#CC(=O)OCCS(=O)(=O)c1cccc(N)c1` belongs 6 µM.
`O=S1(=O)C=Cc2ccccc21` yielded an IC50 of 4 µM.

The nature of the next assay: In vitro inhibition of inducible vascular cell adhesion molecule-1 (VCAM-1) expression in Human aortic endothelial cells (HAEC); NE denotes no effect. The assay is classed as functional, cell-based.
Turning to `Nc1cccc(S(=O)(=O)CCO)c1`, the 50% inhibitory concentration (IC50) entry is “Not Active”.
As to `O=S(=O)(c1ccccc1)c1cccs1`, the half-inhibitory concentration (IC50) entry was “Not Active”.
The same measure, in the same setting: the value for `O=C1c2ccccc2C(=O)N1CCS(=O)(=O)c1ccccc1` was “Not Active”; that for `CCN(CC)CCS(=O)(=O)c1ccccc1` was “Not Active”.
Same read-out and setting: to `CCCOCCS(=O)(=O)c1cccc(N)c1` belongs “Not Active”.
Regarding `CCCNc1cccc(S(=O)(=O)CCOC(C)=O)c1`, the IC50 result is on record as “Not Active”.
In the case of `CC(=O)CCCS(=O)(=O)c1ccccc1`, the half-maximal inhibitory concentration (IC50) entry was “Not Active”.
Regarding `CCOCCS(=O)(=O)c1ccccc1`, the concentration for half-maximal inhibition (IC50) result was “Not Active”.
Still for that read-out and setting: to `O=S(=O)(CCNCc1ccccc1)c1ccccc1` belongs “Not Active”; to `COC(=O)CS(=O)(=O)c1ccccc1`, “Not Active”; to `CCOC(=O)CNCCS(=O)(=O)c1ccccc1`, “Not Active”.
On to `C=C[S+]([O-])c1ccccc1` (configuration not stated), for which the IC50 result was “Not Active”.
For the compound `CCS(=O)(=O)c1ccccc1`, the concentration for half-maximal inhibition (IC50) entry is “Not Active”.
Still for that read-out and setting: the value for `CCCCCCCCNc1cccc(S(=O)(=O)CCOC(C)=O)c1` was “Not Active”.
On the same count and under the same terms, the value for `CCCCCCCCOCCS(=O)(=O)c1ccccc1` was “Not Active”.
For `O=S(=O)(c1ccccc1)c1ccsc1`, the IC50 entry is “Not Active”.
On the same count and under the same terms, to `C=CCCS(=O)(=O)c1ccccc1` belongs “Not Active”.
